The results in this text go back to patent US8354522B2, “Immunostimulatory oligoribonucleotides” (Coley Pharmaceutical GmbH, priority 2005, dated 2013).

Series [1] has as its system isolated monocytes and mDC. The experiment in a line: TNF-alpha and IL-12p40 production upon isolated monocytes and mDC stimulation. The format is cell-based, human. The conditions noted are these: 0.5 μM ORN complexed to 10 μg/ml DOTAP, 16 h. As to the method: FIG. 2 is a set of bar graphs depicting ORN induced cytokine production upon isolated pDC (FIG. 2a), monocytes (FIG. 2b) and mDC (FIG. 2c) stimulation. Cells were stimulated with 0.5 μM ORN complexed to 10 μg/ml DOTAP, 0.5 μM CpG ODN or DOTAP or media alone and IFN-alpha (FIG. 2a), TNF-alpha […] and IL-12p40 (FIG. 2c) were measured.
A similar assay testing different ORN sequences was performed using isolated pDC, monocytes and mDC stimulation. Cells were stimulated with 0.5 μM ORN complexed to 10 μg/ml DOTAP, 0.5 μM CpG ODN or DOTAP or media alone. After 16 h the supernatants were harvested and IFN-alpha, TNF-alpha and IL-12p40 levels were measured by ELISA.

Series [2] relates to CD123+ purified pDC. Put plainly: CD86 surface marker expression upon human pDC stimulation (FACS). The format is cell-based. The conditions noted are these: 1 μM ORN complexed to 25 μg/ml DOTAP, 16 h. As for the experimental part: (§1) FIG. 10 is a series of graphs showing surface marker expression upon human pDC stimulation with AU-rich or GU-rich ORN. CD123+ purified pDC (FIGS. 10a and 10b) or isolated monocytes (FIG. 10c) were incubated with 1 μM ORN complexed to 25 μg/ml DOTAP or DOTAP alone (FIG. 10a) or indicated amounts of ORN complexed to DOTAP or DOTAP alone (FIGS. 10b-10c). After 16 h cells were harvested and stained with CD123, CD11c and HLA-DR antibodies (FIGS. 10a and 10b) or CD14 and CD19 (FIG. 10c). Cell surface marker activation was measured by CD86 (FIGS. 10a and 10b) or CD80 (FIG. 10c) expression. […] FIG. 10b is a graph illustrating that CD86 surface marker expression upon human pDC stimulation is dose-dependent.
(§2) CD123+ purified pDC (FIGS. 10a and 10b) or isolated monocytes (FIG. 10c) were incubated with 1 μM ORN complexed to 25 μg/ml DOTAP or DOTAP alone (FIG. 10a) or indicated amounts of ORN complexed to DOTAP or DOTAP alone (FIGS. 10b-10c). After 16 h cells were harvested and stained with CD123, CD11c and HLA-DR antibodies (FIGS. 10a and 10b) or CD14 and CD19 (FIG. 10c). […] This activation was determined to be dose-dependent (FIG. 10b).

The test system of series [3] is CD14-positive cell. Put plainly: CD80 surface marker expression upon CD14-positive cell stimulation (FACS). In kind it is cell-based. The conditions noted are these: human PBMC (data not shown) and CD14-positive cells, ORN complexed to DOTAP, 16 h. As for the experimental part:
as §1, §2

Series [4] deals with T1, human TLR8 (Homo sapiens, UniProt Q9NR97).
T1 construct: expressed in transfected cells
T1 sequence (Q9NR97 27-1041): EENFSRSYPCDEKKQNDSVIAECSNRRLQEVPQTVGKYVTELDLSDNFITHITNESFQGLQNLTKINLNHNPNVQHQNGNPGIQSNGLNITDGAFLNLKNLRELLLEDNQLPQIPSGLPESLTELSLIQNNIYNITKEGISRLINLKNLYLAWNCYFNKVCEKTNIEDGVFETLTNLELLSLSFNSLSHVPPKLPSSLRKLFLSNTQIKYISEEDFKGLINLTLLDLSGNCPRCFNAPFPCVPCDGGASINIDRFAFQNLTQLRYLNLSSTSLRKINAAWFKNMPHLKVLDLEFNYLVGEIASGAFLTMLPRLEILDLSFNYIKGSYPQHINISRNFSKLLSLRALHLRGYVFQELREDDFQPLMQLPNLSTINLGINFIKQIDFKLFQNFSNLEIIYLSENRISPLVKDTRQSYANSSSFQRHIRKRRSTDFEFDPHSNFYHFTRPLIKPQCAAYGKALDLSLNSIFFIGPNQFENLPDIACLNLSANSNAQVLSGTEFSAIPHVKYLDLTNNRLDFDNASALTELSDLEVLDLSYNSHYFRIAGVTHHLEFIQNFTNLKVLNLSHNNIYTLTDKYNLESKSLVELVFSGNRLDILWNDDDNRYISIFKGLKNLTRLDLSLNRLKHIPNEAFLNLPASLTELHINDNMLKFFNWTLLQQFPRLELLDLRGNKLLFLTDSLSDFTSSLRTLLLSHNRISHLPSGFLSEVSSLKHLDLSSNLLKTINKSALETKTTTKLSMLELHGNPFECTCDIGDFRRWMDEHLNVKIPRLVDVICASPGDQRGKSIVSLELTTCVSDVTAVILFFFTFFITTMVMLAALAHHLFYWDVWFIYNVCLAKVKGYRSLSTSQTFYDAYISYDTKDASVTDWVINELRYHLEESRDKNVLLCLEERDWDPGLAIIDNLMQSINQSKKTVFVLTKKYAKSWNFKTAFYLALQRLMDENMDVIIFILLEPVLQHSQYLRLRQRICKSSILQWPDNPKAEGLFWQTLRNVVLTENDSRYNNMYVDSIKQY
Put plainly: NFκB-luciferase reporter in HEK-293 cells stably transfected with human TLR8. The format is cell-based. To be noted: HEK-293 with human TLR8, ORN complexed to DOTAP, 16 hours. As to the method: Stable-transfected HEK-293 cells with NFκB-luciferase read out reporter and human TLR8 were stimulated for 16 hours with indicated ORN. After 16 hours the supernatants were removed, the cells lysed and the luciferase activity or cytokine level was measured. FIGS. 9a and 9b show fold induction of NFκB-luciferase after stimulus.
Unresponsive HEK-293 cells were stably transfected with human TLR3 or TLR8 expression plasmid and NFκB-luciferase reporter gene construct. Cells were incubated with the indicated ORN sequences (10 μM complexed to 50 μg/ml DOTAP) or control stimuli (10 μM R-848, 50 μg/ml polyIC, 3.3 μM ODN 10103 or 50 μg/ml DOTAP) for 16 hours. NFκB-activation was measured by assaying luciferase activity. Results are given as fold induction above background (medium). One representative experiment of 6 independent repetitions is presented (FIG. 9a).
Stable-transfected HEK-293 cells expressing human TLR8 were stimulated with indicated concentrations of ORN complexed to DOTAP (50 μg/ml->1/3 dilution) or DOTAP alone (50 μg/ml->1/3 dilution) for 16 hours. NFκB activation was measured by assaying luciferase activity. Results are given as fold induction above background (medium). […]
Unresponsive HEK-293 cells were stably transfected with human TLR8 expression plasmid and NFκB-luciferase reporter gene construct. […] NFκB-activation was measured by assaying luciferase activity. […]
A general note: A reporter such as luciferase makes a cellular process visible.

As to “U*U*A*U*U*A*U*U*A*U*U*A*U*U*A*U*U*A*U*U (UUAUUAUUAUUAUUAUUAUU; chemistry not fully specified) [SEQ ID NO: 13]”, in series [1], the “IL-12p40 production (in words)” value was “clear TNF-alpha and IL-12p40 production”; the “TNF-alpha production (in words)” value was “clear TNF-alpha and IL-12p40 production”. Also, the “CD86 surface marker expression” value in series [2] is recorded as “very little CD86 activation”. Besides, in series [3], the “CD80 surface marker expression” value is “no difference in CD80 surface marker expression”. Also, in series [4], the “human TLR8 signaling (NFκB-luciferase fold induction)” value was “Stimulate Specific Human TLR8 Signaling in a Dose Dependent Manner”.

Take “U*U*G*U*U*G*U*U*G*U*U*G*U*U*G*U*U*G*U*U (UUGUUGUUGUUGUUGUUGUU; listed as RNA, chemistry not fully specified) [SEQ ID NO: 21]”: in series [1], the “IL-12p40 production (in words)” value is “clear TNF-alpha and IL-12p40 production”; the “TNF-alpha production (in words)” value is “clear TNF-alpha and IL-12p40 production”. Also, the “CD86 surface marker expression” value in series [2] was “significant CD86 activation”. Moreover, the “CD80 surface marker expression” value in series [3] is reported as “no difference in CD80 surface marker expression”. In addition, the “human TLR8 signaling (NFκB-luciferase fold induction)” value in series [4] is listed as “Stimulate Specific Human TLR8 Signaling in a Dose Dependent Manner”.
